What was measured:
[1] = tested on: NCI-H358 human non-small cell lung cancer; experiment: NCI-H358 CCK-8 proliferation assay; assay type: cell-based; settings: NCI-H358 cells, 72 hr
Method: The following cancer cell lines were employed: BT-474 human breast carcinoma (ATCC, #HTB-20); MIA PaCa-2 human pancreatic carcinoma [2 copies KRAS(G12C)](ATCC, #CRL-1420); NCI-H23 human non-small cell lung cancer [1 copy KRAS(G12C)](ATCC, #CRL-5800); NCI-H358 human non-small cell lung cancer [1 copy KRAS(G12C)](ATCC, #CRL-5807); LU65A human lung carcinoma (Pharmaron, Beijing, China). Cell lines were cultured essentially according to ATCC and Pharmaron recommendations.
Cancer Cell Line Proliferation (CCK-8) Assays
3-fold serial dilutions of each test compound were prepared ranging from 20 μM to 1.02 nM.
% Inhibition=100−(D−B)/(S−B)*100%. • S: Absorbance of cells treated with DMSO • D: Absorbance of compound-treated cells • B: Absorbance of medium with DMSO without cells

[2] = target: T1, HSP90a protein (Homo sapiens, UniProt P07900); experiment: HSP90α-binding fluorescent polarization (FP) assay, BODIPY-labeled RNK04010 probe; settings: FP competition with RNK04010 (BODIPY-labeled), 5 nM, 300 min at 25° C.
T1 construct: purchased BPS Bioscience 50298
Procedure, shortened: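 Polarization signal was read after equilibration at 25° C, for 120 min with FITC-geldanamycin or 300 min with the BODIPY-tagged RNK04010 probe, each at 5 nM final. Compounds spanned 20 μM down to 5.2 nM in 2.5-fold dilutions against the HSP90a N-terminal domain.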

| SMILES | EC50 [1] [nM] | IC50 [2] [nM] |
| --- | --- | --- |
| C=CC(=O)N1CCN(c2nc(NCCC(=O)NCCOCCOCCOc3ccc(-n4c(O)nnc4-c4cc(CC)c(O)cc4O)cc3)nc3c2CCN(c2cc(O)cc4ccccc24)C3)CC1 [Compound 5, 3-((4-(4-acryloylpiperazin-1-yl)-7-(3-hydroxynaphthalen-1-yl)-5,6,7,8-tetrahydropyrido[3,4-d]pyrimidin-2-yl)amino)-N-(2-(2-(2-(4-(3-(5-ethyl-2,4-dihydroxyphenyl)-5-hydroxy-4H-1,2,4-triazol-4-yl)phenoxy)ethoxy)ethoxy)ethyl)propanamide, trifluoroacetic acid] | > 1000 | > 1000 |
| C=CC(=O)N1CCN(c2nc(NCCC(=O)NCc3ccc(-n4c(O)nnc4-c4cc(C(C)C)c(O)cc4O)cc3C(F)(F)F)nc3c2CCN(c2cc(O)cc4ccccc24)C3)CC1 [Compound 36, 3-((4-(4-acryloylpiperazin-1-yl)-7-(3-hydroxynaphthalen-1-yl)-5,6,7,8-tetrahydropyrido[3,4-d]pyrimidin-2-yl)amino)-N-(4-(3-(2,4-dihydroxy-5-isopropylphenyl)-5-hydroxy-4H-1,2,4-triazol-4-yl)-2-(trifluoromethyl)benzyl)propanamide, trifluoroacetic acid] | > 1000 | 100 to 1000 |
| CCc1cc(-c2nnc(O)n2-c2ccc(CNC(=O)CCNc3nc4c(c(N5CCN(C(C)=O)CC5)n3)CCN(c3cc(O)cc5ccccc35)C4)c(C(F)(F)F)c2)c(O)cc1O [Compound 53, 3-((4-(4-acetylpiperazin-1-yl)-7-(3-hydroxynaphthalen-1-yl)-5,6,7,8-tetrahydropyrido[3,4-d]pyrimidin-2-yl)amino)-N-(4-(3-(5-ethyl-2,4-dihydroxyphenyl)-5-hydroxy-4H-1,2,4-triazol-4-yl)-2-(trifluoromethyl)benzyl)propanamide, trifluoroacetic acid] | > 1000 | > 1000 |
| CCc1cc(-c2nnc(O)n2-c2ccc(CNC(=O)CCNc3nc4c(c(N5CCN(C(C)=O)CC5)n3)CCN(c3cc(O)cc5ccccc35)C4)cc2)c(O)cc1O [Compound 48, 3-((4-(4-acetylpiperazin-1-yl)-7-(3-hydroxynaphthalen-1-yl)-5,6,7,8-tetrahydropyrido[3,4-d]pyrimidin-2-yl)amino)-N-(4-(3-(5-ethyl-2,4-dihydroxyphenyl)-5-hydroxy-4H-1,2,4-triazol-4-yl)benzyl)propanamide, trifluoroacetic acid] | > 1000 | 100 to 1000 |
| CC(=O)N1CCN(c2nc(NCCC(=O)N3CCN(Cc4ccc(-n5c(O)nnc5-c5cc(C(C)C)c(O)cc5O)cc4)CC3)nc3c2CCN(c2cc(O)cc4ccccc24)C3)CC1 [Compound 26, 3-((4-(4-acetylpiperazin-1-yl)-7-(3-hydroxynaphthalen-1-yl)-5,6,7,8-tetrahydropyrido[3,4-d]pyrimidin-2-yl)amino)-1-(4-(4-(3-(2,4-dihydroxy-5-isopropylphenyl)-5-hydroxy-4H-1,2,4-triazol-4-yl)benzyl)piperazin-1-yl)propan-1-one, trifluoroacetic acid] | > 1000 | 100 to 1000 |
| CC(=O)N1CCN(c2nc(NCCC(=O)N3CCC(Cc4ccc(-n5c(O)nnc5-c5cc(C(C)C)c(O)cc5O)cc4)CC3)nc3c2CCN(c2cc(O)cc4ccccc24)C3)CC1 [Compound 28, 3-((4-(4-acetylpiperazin-1-yl)-7-(3-hydroxynaphthalen-1-yl)-5,6,7,8-tetrahydropyrido[3,4-d]pyrimidin-2-yl)amino)-1-(4-(4-(3-(2,4-dihydroxy-5-isopropylphenyl)-5-hydroxy-4H-1,2,4-triazol-4-yl)benzyl)piperidin-1-yl)propan-1-one, trifluoroacetic acid] | > 1000 | 100 to 1000 |
| CCC(=O)N1CCN(c2nc(NCCC(=O)NCc3ccc(-n4c(O)nnc4-c4cc(CC)c(O)cc4O)cc3F)nc3c2CCN(c2cc(O)cc4ccccc24)C3)CC1 [Compound 34, N-(4-(3-(5-ethyl-2,4-dihydroxyphenyl)-5-hydroxy-4H-1,2,4-triazol-4-yl)-2-fluorobenzyl)-3-((7-(3-hydroxynaphthalen-1-yl)-4-(4-propionylpiperazin-1-yl)-5,6,7,8-tetrahydropyrido[3,4-d]pyrimidin-2-yl)amino)propanamide, trifluoroacetic acid] | > 1000 | > 1000 |
| C=CC(=O)N1CCN(c2nc(NCCC(=O)N3CCC(CN4CCN(Cc5ccc(-n6c(O)nnc6-c6cc(CC)c(O)cc6O)cc5F)CC4)CC3)nc3c2CCN(c2cc(O)cc4ccccc24)C3)CC1 [Compound 8, 1-(4-(2-((3-(4-((4-(4-(3-(5-ethyl-2,4-dihydroxyphenyl)-5-hydroxy-4H-1,2,4-triazol-4-yl)-2-fluorobenzyl)piperazin-1-yl)methyl)piperidin-1-yl)-3-oxopropyl)amino)-7-(3-hydroxynaphthalen-1-yl)-5,6,7,8-tetrahydropyrido[3,4-d]pyrimidin-4-yl)piperazin-1-yl)prop-2-en-1-one, trifluoroacetic acid] | 100 to 1000 | 100 to 1000 |
| C=CC(=O)N1CCN(c2nc(NCCC(=O)N3CCC(CN4CCC(Cc5ccc(-n6c(O)nnc6-c6cc(C(C)C)c(O)cc6O)cc5)CC4)CC3)nc3c2CCN(c2cc(O)cc4ccccc24)C3)CC1 [Compound 12, 1-(4-(2-((3-(4-((4-(4-(3-(2,4-dihydroxy-5-isopropylphenyl)-5-hydroxy-4H-1,2,4-triazol-4-yl)benzyl)piperidin-1-yl)methyl)piperidin-1-yl)-3-oxopropyl)amino)-7-(3-hydroxynaphthalen-1-yl)-5,6,7,8-tetrahydropyrido[3,4-d]pyrimidin-4-yl)piperazin-1-yl)prop-2-en-1-one, trifluoroacetic acid] | > 1000 | 100 to 1000 |

Other lines, results leading:

| EC50 [1] [nM] | IC50 [2] [nM] | SMILES |
| --- | --- | --- |
| > 1000 | 100 to 1000 | C=CC(=O)N1CCN(c2nc(NCCC(=O)N3CCN(c4ccc(-n5c(O)nnc5-c5cc(C(C)C)c(O)cc5O)cc4)CC3)nc3c2CCN(c2cccc4ccccc24)C3)C[C@H]1CC#N [Compound 90, (R)-2-(1-acryloyl-4-(2-((3-(4-(4-(3-(2,4-dihydroxy-5-isopropylphenyl)-5-hydroxy-4H-1,2,4-triazol-4-yl)phenyl)piperazin-1-yl)-3-oxopropyl)amino)-7-(naphthalen-1-yl)-5,6,7,8-tetrahydropyrido[3,4-d]pyrimidin-4-yl)piperazin-2-yl)acetonitrile, trifluoroacetic acid] |
| 100 to 1000 | 100 to 1000 | CCc1cc(-c2nnc(C(=O)NCC(F)(F)F)n2-c2ccc(CN(C)Cc3ccc(CC4CCN(C(=O)CCNc5nc6c(c(N7CCN(C(C)=O)CC7)n5)CCN(c5cc(O)cc7ccccc57)C6)CC4)cc3)cc2)c(O)cc1O [Compound 113, 4-(4-(((4-((1-(3-((4-(4-acetylpiperazin-1-yl)-7-(3-hydroxynaphthalen-1-yl)-5,6,7,8-tetrahydropyrido[3,4-d]pyrimidin-2-yl)amino)propanoyl)piperidin-4-yl)methyl)benzyl)(methyl)amino)methyl)phenyl)-5-(5-ethyl-2,4-dihydroxyphenyl)-N-(2,2,2-trifluoroethyl)-4H-1,2,4-triazole-3-carboxamide, trifluoroacetic acid] |
| 100 to 1000 | 100 to 1000 | CC(=O)N1CCN(c2nc(NCCC(=O)N3CCN(Cc4ccc(CN(C)Cc5ccc(-n6c(C(=O)NCC(F)(F)F)nnc6-c6cc(C(C)C)c(O)cc6O)cc5)cc4)CC3)nc3c2CCN(c2cccc4ccccc24)C3)C[C@H]1CC#N [Compound 124, (R)-4-(4-(((4-((4-(3-((4-(4-acetyl-3-(cyanomethyl)piperazin-1-yl)-7-(naphthalen-1-yl)-5,6,7,8-tetrahydropyrido[3,4-d]pyrimidin-2-yl)amino)propanoyl)piperazin-1-yl)methyl)benzyl)(methyl)amino)methyl)phenyl)-5-(2,4-dihydroxy-5-isopropylphenyl)-N-(2,2,2-trifluoroethyl)-4H-1,2,4-triazole-3-carboxamide, trifluoroacetic acid] |
| > 1000 | 100 to 1000 | C=CC(=O)N1CCN(c2nc(NCCC(=O)NCc3ccc(-n4c(O)nnc4-c4cc(C(C)C)c(O)cc4O)cc3C(F)(F)F)nc3c2CCN(c2cccc4ccccc24)C3)C[C@H]1CC#N [Compound 82, (R)-3-((4-(4-acryloyl-3-(cyanomethyl)piperazin-1-yl)-7-(naphthalen-1-yl)-5,6,7,8-tetrahydropyrido[3,4-d]pyrimidin-2-yl)amino)-N-(4-(3-(2,4-dihydroxy-5-isopropylphenyl)-5-hydroxy-4H-1,2,4-triazol-4-yl)-2-(trifluoromethyl)benzyl)propanamide, trifluoroacetic acid] |
| > 1000 | < 100 | CCC(=O)N1CCN(c2nc(=O)n(-c3ccc(C(=O)NCCOCCOc4ccc(-n5c(O)nnc5-c5cc(C(C)C)c(O)cc5O)cc4)nc3)c3nc(-c4c(O)cccc4F)c(F)cc23)[C@@H](C)C1 [Compound 130, N-(2-(2-(4-(3-(2,4-dihydroxy-5-isopropylphenyl)-5-hydroxy-4H-1,2,4-triazol-4-yl)phenoxy)ethoxy)ethyl)-5-(6-fluoro-7-(2-fluoro-6-hydroxyphenyl)-4-((S)-2-methyl-4-propionylpiperazin-1-yl)-2-oxopyrido[2,3-d]pyrimidin-1(2H)-yl)picolinamide] |

From patent publication US20230391772A1, “METHODS AND COMPOSITIONS FOR TARGETED PROTEIN DEGRADATION” (Ranok Therapeutics (Hangzhou) Co. Ltd., priority 2020, published 2023)
